From patent US5567692A, “9-[(substituted glycyl) amido)]-6-demethyl-6-deoxytetracyclines” (priority 1995, dated 1996)
Structures can show the parent of a compound that is named as a salt. Where two headings read alike, the source gives them in different places.

Tests used:
Assay type in all cases: cell-based
[1] = test system: S. aureus IVES 1983; assay: MIC, agar dilution; conditions: Staphylococcus aureus, IVES1983, 18 h
[2] = test system: S. aureus UBMS 90-2 Tet M; assay: microbe, parasite or virus in culture; conditions: Staphylococcus aureus, UBMS902TETM, 18 h
[3] = test system: S. aureus UBMS 88-4; assay: MIC, agar dilution; conditions: Staphylococcus aureus, UBMS884, 18 h
[4] = test system: Ps. aeruginosa ATCC 27853; assay: MIC, agar dilution; conditions: Pseudomonas aeruginosa, ATCC27853, 18 h, Ps. aeruginosa ATCC 27853; read-out: MIC
[5] = test system: S. aureus UBMS 90-1 Tet M; assay: microbe, parasite or virus in culture; conditions: Staphylococcus aureus, UBMS901TETM, 18 h
[6] = test system: E. coli UBMS 89-2 Tet sens.; assay: MIC, agar dilution; conditions: Escherichia coli, 18 h; E. coli UBMS 89-2 Tet sens.; read-out: MIC
[7] = test system: S. aureus UBMS 90-3; assay: MIC, agar dilution; conditions: Staphylococcus aureus, UBMS903, 18 h
[8] = test system: E. coli #311 (MP); assay: MIC, agar dilution; conditions: Escherichia coli, 18 h, E. coli #311 (MP); read-out: MIC
[9] = test system: S. aureus ATCC 29213; assay: MIC, agar dilution; conditions: Staphylococcus aureus, ATCC29213, 18 h, S. aureus ATCC 29213
[10] = test system: S. aureus ROSE (MP); assay: MIC, agar dilution; conditions: Staphylococcus aureus, 18 h
[11] = test system: E. coli UBMS 90-5; assay: microbe, parasite or virus in culture; conditions: Escherichia coli, UBMS905, 18 h, E. coli UBMS 90-5; read-out: MIC
[12] = test system: E. coli UBMS 88-1 Tet B; assay: microbe, parasite or virus in culture; conditions: Escherichia coli, UBMS881TETB, 18 h
[13] = test system: E. coli UBMS 89-1 Tet M; assay: microbe, parasite or virus in culture; conditions: Escherichia coli, UBMS891TETM, 18 h
[14] = test system: E. coli J2175; assay: MIC, agar dilution; conditions: Escherichia coli, 18 h, read-out: MIC
[15] = test system: E. coli J3272 Tet D; assay: microbe, parasite or virus in culture; conditions: Escherichia coli, J3272TETD, 18 h
[16] = test system: S. aureus UBMS 88-7 Tet K; assay: microbe, parasite or virus in culture; conditions: Staphylococcus aureus, UBMS887TETK, 18 h
[17] = test system: Enterococcus 12201; assay: MIC, agar dilution; conditions: Enterococcus, 12201, 18 h
[18] = test system: S. hemolyticus AVHAH 88-3; assay: MIC, agar dilution; conditions: Streptococcus pyogenes, AVHAH883, 18 h
[19] = test system: E. coli ATCC 25922; assay: MIC, agar dilution; conditions: Escherichia coli, ATCC25922, 18 h
[20] = test system: S. aureus IVES 2943; assay: MIC, agar dilution; conditions: Staphylococcus aureus, IVES2943, 18 h
[21] = test system: S. aureus UBMS 88-5 Tet M; assay: microbe, parasite or virus in culture; conditions: Staphylococcus aureus, UBMS885TETM, 18 h
[22] = test system: E. coli J3272 Tet C; assay: microbe, parasite or virus in culture; conditions: Escherichia coli, J3272TETC, 18 h
[23] = test system: E. coli PRP1 Tet A; assay: microbe, parasite or virus in culture; conditions: Escherichia coli, PRP1TETA, 18 h
[24] = test system: S. aureus NEMC 8769; assay: MIC, agar dilution; conditions: Staphylococcus aureus, NEMC8769, 18 h
[25] = test system: S. marcescens FPOR 8733; assay: MIC, agar dilution; conditions: Serratia marcescens, FPOR8733, 18 h
[26] = test system: S. aureus SMITH (MP); assay: MIC, agar dilution; conditions: Staphylococcus aureus, 18 h
[27] = test system: E. coli UBMS 90-4 Tet M; assay: microbe, parasite or virus in culture; conditions: Escherichia coli, UBMS904TETM, 18 h
[28] = test system: E. faecalis ATCC 29212; assay: MIC, agar dilution; conditions: Enterococcus faecalis, ATCC29212, 18 h
[29] = test system: X. maltophilia NEMC 87210; assay: MIC, agar dilution; conditions: Stenotrophomonas maltophilia, NEMC87210, 18 h
[30] = test system: E. coli BAJ9003 IMP MUT; assay: microbe, parasite or virus in culture; conditions: Escherichia coli, BAJ9003IMPMUT, 18 h
[31] = test system: E. coli MC 4100 TNIOC Tet B; assay: microbe, parasite or virus in culture; conditions: Escherichia coli, 18 h
[32] = test system: E. coli MC 4100 Tet sens.; assay: MIC, agar dilution; conditions: Escherichia coli, 18 h

| Structure (SMILES) | MIC [2] [µg/mL] | MIC [3] [µg/mL] | MIC [4] [µg/mL] | MIC [5] [µg/mL] | MIC [8] [µg/mL] | MIC [9] [µg/mL] | MIC [10] [µg/mL] | MIC [11] [µg/mL] | MIC [12] [µg/mL] | MIC [13] [µg/mL] | MIC [14] [µg/mL] | MIC [15] [µg/mL] | MIC [16] [µg/mL] | MIC [18] [µg/mL] | MIC [20] [µg/mL] | MIC [21] [µg/mL] | MIC [22] [µg/mL] | MIC [23] [µg/mL] | MIC [24] [µg/mL] | MIC [25] [µg/mL] | other results |
| --- | --- | --- | --- | --- | --- | --- | --- | --- | --- | --- | --- | --- | --- | --- | --- | --- | --- | --- | --- | --- | --- |
| CNCC(=O)Nc1ccc2c(c1O)C(=O)C1=C(O)[C@]3(O)C(=O)C(C(N)=O)=C(O)[C@@H](N(C)C)C3CC1C2 (stereo partly drawn) [F, [4S-(4alpha,12aalpha)]-4-(Dimethylamino)-1,4,4a,5,5a,6,11,12a-octahydro-3,10,12,12a-tetrahydroxy-9-[[(methylamino)acetyl]amino]-1,11-dioxo-2-naphthacenecarboxamide dihydrochloride] | 0.5 | 0.5 | 32 | 0.5 | 0.5 | 0.5 | > 32 | 0.5 | 1 | 0.5 | 0.5 | 0.5 | 16 | 1 | > 32 | 1 | 4 | 4 | 0.25 | 4 | MIC ([1]; S. aureus IVES 1983, read-out: MIC): 16 µg/mL; MIC [6]: 1 µg/mL; MIC [7]: 0.5 µg/mL; MIC [17]: 0.5 µg/mL; MIC ([19]; read-out: MIC): 0.5 µg/mL; MIC [26]: 0.5 µg/mL; MIC [27]: 0.5 µg/mL; MIC [28]: 0.5 µg/mL; MIC [29]: 16 µg/mL; MIC [30]: 0.5 µg/mL |
| CN(C)[C@@H]1C(O)=C(C(N)=O)C(=O)[C@@]2(O)C(O)=C3C(=O)c4c(ccc(NC(=O)CNCc5cccs5)c4O)CC3CC12 (stereo partly drawn) [L, [4S-(4-alpha,12aalpha)]-4-(Dimethylamino)-1,4,4a,5,5a,6,11,12a-octahydro-3,10,12,12a-tetrahydroxy-1,11-dioxo-9-[[[(2-thienylmethyl)amino]acetyl]amino]-2-naphthacenecarboxamide dihydrochloride] | 8 | 8 | > 32 | 8 | 16 | 8 | 32 | 16 | 32 | 8 | 16 | 16 | 16 | 8 | 16 | 8 | 32 | 16 | 8 | > 32 | MIC [1]: 16 µg/mL; MIC ([7]; S. aureus UBMS 90-3): 4 µg/mL; MIC [31]: 32 µg/mL; MIC [32]: 8 µg/mL; MIC ([17]; Enterococcus 12201, read-out: MIC): 8 µg/mL; MIC [19]: 8 µg/mL; MIC ([26]; S. aureus SMITH (MP)): 4 µg/mL; MIC [27]: 8 µg/mL; MIC [29]: > 32 µg/mL; MIC [30]: 4 µg/mL |
